{
  "source": "patent US8362216B2",
  "about": "“Method of detection using antibodies that specifically bind hedgehog-derived polypeptides” (The Johns Hopkins University School of Medicine, priority 1994, dated 2013)",
  "molecular_target": "His6Hh-C protein (Drosophila melanogaster, UniProt Q02936, DEL89-254)",
  "sequence (Q02936 other isoform, or with tags, fused parts or gaps DEL89-254)": "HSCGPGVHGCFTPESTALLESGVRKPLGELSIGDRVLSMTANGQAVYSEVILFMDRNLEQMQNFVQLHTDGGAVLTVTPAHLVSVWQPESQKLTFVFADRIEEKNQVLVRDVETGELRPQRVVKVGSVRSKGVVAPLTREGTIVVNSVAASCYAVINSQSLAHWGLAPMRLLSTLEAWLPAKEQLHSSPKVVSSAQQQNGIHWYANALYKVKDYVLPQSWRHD",
  "assay": "In vitro autocleavage reaction of bacterially expressed His6Hh-C protein (DTT / lipid stimulation)",
  "conditions": "lipid added with 1 mM DTT (cholesterol 0.35 mM)",
  "note": "“Also recorded” adds a separate entry of the source.",
  "data": [
    {"smiles": "CC(C)CCC[C@@H](C)[C@H]1CC[C@H]2[C@@H]3CC=C4C[C@@H](O)CC[C@]4(C)[C@H]3CC[C@]12C", "note": "[cholesterol]", "values": [
      {"measurement": "Stimulation of His6Hh-C autocleavage in vitro", "value": "stimulates His2Hh-C autocleavage; also recorded: displayed stimulatory activity similar to that observed with lipids extracted from spot B"}
    ]}
  ]
}
